According to the supplement of paper PMC10307832:

Columns and labels:
Assay in all cases: relative viability (nuclei count vs DMSO), 5 days (fraction); higher = more cells survive
NCI-H1666 = test system: NCI-H1666
Procedure, shortened: (§1)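 Relative viability equals treated-well nuclei counts divided by vehicle-well nuclei counts. Counts came from 4× images of lung cancer cell lines grown in 1536-well plates for 5 days after pin-tool dosing on the day after seeding. Dosing used one drug alone or a fixed anchor-drug dose plus five library-drug doses (not always all listed) in √10 steps, and values are medians of duplicate plates.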

SK-MES-1 = test system: SK-MES-1
Procedure, shortened: as §1

NCI-H1975 = test system: NCI-H1975
Procedure, shortened: as §1

LK-2 = test system: LK-2
Procedure, shortened: as §1

EKVX = test system: EKVX
Procedure, shortened: as §1

A-427 = test system: A-427
Procedure, shortened: as §1

COR-L 105 = test system: COR-L 105
Procedure, shortened: as §1

EMC-BAC-2 = test system: EMC-BAC-2
Procedure, shortened: as §1

PC-3 [JPC-3] = test system: PC-3 [JPC-3]
Procedure, shortened: as §1

NCI-H23 = test system: NCI-H23
Procedure, shortened: as §1

NCI-H520 = test system: NCI-H520
Procedure, shortened: as §1

NCI-H1755 = test system: NCI-H1755
Procedure, shortened: as §1

SW 900 = test system: SW 900
Procedure, shortened: as §1

NCI-H1734 = test system: NCI-H1734
Procedure, shortened: as §1

ChaGo-K-1 = test system: ChaGo-K-1
Procedure, shortened: as §1

NCI-H2170 = test system: NCI-H2170
Procedure, shortened: as §1

NCI-H441 = test system: NCI-H441
Procedure, shortened: as §1

HCC-366 = test system: HCC-366
Procedure, shortened: as §1

LOU-NH91 = test system: LOU-NH91
Procedure, shortened: as §1

H3255 = test system: H3255
Procedure, shortened: as §1

NCI-H596 = test system: NCI-H596
Procedure, shortened: as §1

Question: `Nc1ccn([C@@H]2O[C@H](CO)[C@@H](O)[C@@H]2O)c(=O)n1` [Cytarabine] + Nc1ncn([C@H]2C[C@H](O)[C@@H](CO)O2)c(=O)n1 [Decitabine] (partner 2 µM) was tested. Which relative viability (NCI-H1666; first compound 0.005 µM) did it give?
Answer: 0.73

Question: What about the relative viability (NCI-H1666; first compound 0.01581 µM) of the same compound?
Answer: 0.633

Question: What about the relative viability (NCI-H1666; first compound 0.05 µM) of the same compound?
Answer: 0.543

Question: And the relative viability (NCI-H1666; first compound 0.1581 µM)?
Answer: 0.523

Question: And the relative viability (NCI-H1666; first compound 0.5 µM)?
Answer: 0.455

Question: What about the relative viability (SK-MES-1; first compound 0.005 µM) of the same compound?
Answer: 0.29

Question: What about the relative viability (SK-MES-1; first compound 0.01581 µM) of the same compound?
Answer: 0.211

Question: And the relative viability (SK-MES-1; first compound 0.05 µM)?
Answer: 0.205

Question: And the relative viability (SK-MES-1; first compound 0.1581 µM)?
Answer: 0.183

Question: What about the relative viability (SK-MES-1; first compound 0.5 µM) of the same compound?
Answer: 0.155

Question: What about the relative viability (NCI-H1975; first compound 0.005 µM) of the same compound?
Answer: 0.336

Question: And the relative viability (NCI-H1975; first compound 0.01581 µM)?
Answer: 0.353

Question: What about the relative viability (NCI-H1975; first compound 0.05 µM) of the same compound?
Answer: 0.562

Question: And the relative viability (NCI-H1975; first compound 0.1581 µM)?
Answer: 0.271

Question: And the relative viability (NCI-H1975; first compound 0.5 µM)?
Answer: 0.257

Question: And the relative viability (LK-2; first compound 0.005 µM)?
Answer: 0.234

Question: And the relative viability (LK-2; first compound 0.01581 µM)?
Answer: 0.249

Question: And the relative viability (LK-2; first compound 0.05 µM)?
Answer: 0.15

Question: And the relative viability (LK-2; first compound 0.1581 µM)?
Answer: 0.0989

Question: What about the relative viability (LK-2; first compound 0.5 µM) of the same compound?
Answer: 0.132

Question: And the relative viability (EKVX; first compound 0.005 µM)?
Answer: 0.485

Question: And the relative viability (EKVX; first compound 0.01581 µM)?
Answer: 0.282

Question: And the relative viability (EKVX; first compound 0.05 µM)?
Answer: 0.259

Question: And the relative viability (EKVX; first compound 0.5 µM)?
Answer: 0.184

Question: And the relative viability (A-427; first compound 0.005 µM)?
Answer: 0.475

Question: What about the relative viability (A-427; first compound 0.01581 µM) of the same compound?
Answer: 0.421

Question: What about the relative viability (A-427; first compound 0.05 µM) of the same compound?
Answer: 0.361

Question: And the relative viability (A-427; first compound 0.1581 µM)?
Answer: 0.259

Question: And the relative viability (A-427; first compound 0.5 µM)?
Answer: 0.263

Question: And the relative viability (COR-L 105; first compound 0.005 µM)?
Answer: 0.623

Question: What about the relative viability (COR-L 105; first compound 0.01581 µM) of the same compound?
Answer: 0.642

Question: What about the relative viability (COR-L 105; first compound 0.05 µM) of the same compound?
Answer: 0.426

Question: And the relative viability (COR-L 105; first compound 0.1581 µM)?
Answer: 0.398

Question: And the relative viability (COR-L 105; first compound 0.5 µM)?
Answer: 0.303

Question: What about the relative viability (EMC-BAC-2; first compound 0.005 µM) of the same compound?
Answer: 0.943

Question: And the relative viability (EMC-BAC-2; first compound 0.01581 µM)?
Answer: 0.836

Question: And the relative viability (EMC-BAC-2; first compound 0.05 µM)?
Answer: 0.597

Question: And the relative viability (EMC-BAC-2; first compound 0.1581 µM)?
Answer: 0.315

Question: What about the relative viability (EMC-BAC-2; first compound 0.5 µM) of the same compound?
Answer: 0.332

Question: What about the relative viability (PC-3 [JPC-3]; first compound 0.005 µM) of the same compound?
Answer: 0.824

Question: And the relative viability (PC-3 [JPC-3]; first compound 0.01581 µM)?
Answer: 0.763

Question: And the relative viability (PC-3 [JPC-3]; first compound 0.05 µM)?
Answer: 0.581

Question: What about the relative viability (PC-3 [JPC-3]; first compound 0.1581 µM) of the same compound?
Answer: 0.468

Question: What about the relative viability (PC-3 [JPC-3]; first compound 0.5 µM) of the same compound?
Answer: 0.507

Question: And the relative viability (NCI-H23; first compound 0.005 µM)?
Answer: 0.296

Question: What about the relative viability (NCI-H23; first compound 0.01581 µM) of the same compound?
Answer: 0.267

Question: And the relative viability (NCI-H23; first compound 0.05 µM)?
Answer: 0.274

Question: What about the relative viability (NCI-H23; first compound 0.1581 µM) of the same compound?
Answer: 0.195

Question: And the relative viability (NCI-H23; first compound 0.5 µM)?
Answer: 0.193

Question: And the relative viability (NCI-H520; first compound 0.005 µM)?
Answer: 0.48

Question: What about the relative viability (NCI-H520; first compound 0.01581 µM) of the same compound?
Answer: 0.564

Question: What about the relative viability (NCI-H520; first compound 0.05 µM) of the same compound?
Answer: 0.53

Question: And the relative viability (NCI-H520; first compound 0.1581 µM)?
Answer: 0.343

Question: And the relative viability (NCI-H520; first compound 0.5 µM)?
Answer: 0.349

Question: And the relative viability (NCI-H1755; first compound 0.005 µM)?
Answer: 0.705

Question: What about the relative viability (NCI-H1755; first compound 0.01581 µM) of the same compound?
Answer: 0.619

Question: And the relative viability (NCI-H1755; first compound 0.05 µM)?
Answer: 0.659

Question: What about the relative viability (NCI-H1755; first compound 0.1581 µM) of the same compound?
Answer: 0.472

Question: What about the relative viability (NCI-H1755; first compound 0.5 µM) of the same compound?
Answer: 0.424

Question: What about the relative viability (SW 900; first compound 0.005 µM) of the same compound?
Answer: 0.384

Question: What about the relative viability (SW 900; first compound 0.01581 µM) of the same compound?
Answer: 0.344

Question: What about the relative viability (SW 900; first compound 0.05 µM) of the same compound?
Answer: 0.325

Question: What about the relative viability (SW 900; first compound 0.1581 µM) of the same compound?
Answer: 0.199

Question: And the relative viability (SW 900; first compound 0.5 µM)?
Answer: 0.287

Question: What about the relative viability (NCI-H1734; first compound 0.005 µM) of the same compound?
Answer: 0.439

Question: And the relative viability (NCI-H1734; first compound 0.01581 µM)?
Answer: 0.27

Question: What about the relative viability (NCI-H1734; first compound 0.05 µM) of the same compound?
Answer: 0.188

Question: And the relative viability (NCI-H1734; first compound 0.1581 µM)?
Answer: 0.131

Question: And the relative viability (NCI-H1734; first compound 0.5 µM)?
Answer: 0.138

Question: And the relative viability (ChaGo-K-1; first compound 0.005 µM)?
Answer: 0.475

Question: What about the relative viability (ChaGo-K-1; first compound 0.01581 µM) of the same compound?
Answer: 0.413

Question: What about the relative viability (ChaGo-K-1; first compound 0.05 µM) of the same compound?
Answer: 0.339

Question: What about the relative viability (ChaGo-K-1; first compound 0.1581 µM) of the same compound?
Answer: 0.252

Question: What about the relative viability (ChaGo-K-1; first compound 0.5 µM) of the same compound?
Answer: 0.225

Question: And the relative viability (NCI-H2170; first compound 0.005 µM)?
Answer: 0.393

Question: What about the relative viability (NCI-H2170; first compound 0.01581 µM) of the same compound?
Answer: 0.346

Question: What about the relative viability (NCI-H2170; first compound 0.05 µM) of the same compound?
Answer: 0.355

Question: What about the relative viability (NCI-H2170; first compound 0.1581 µM) of the same compound?
Answer: 0.254

Question: And the relative viability (NCI-H2170; first compound 0.5 µM)?
Answer: 0.241

Question: And the relative viability (NCI-H441; first compound 0.005 µM)?
Answer: 0.289

Question: And the relative viability (NCI-H441; first compound 0.01581 µM)?
Answer: 0.186

Question: What about the relative viability (NCI-H441; first compound 0.05 µM) of the same compound?
Answer: 0.268

Question: What about the relative viability (NCI-H441; first compound 0.1581 µM) of the same compound?
Answer: 0.182

Question: And the relative viability (NCI-H441; first compound 0.5 µM)?
Answer: 0.153

Question: What about the relative viability (HCC-366; first compound 0.005 µM) of the same compound?
Answer: 0.402

Question: What about the relative viability (HCC-366; first compound 0.01581 µM) of the same compound?
Answer: 0.292

Question: What about the relative viability (HCC-366; first compound 0.05 µM) of the same compound?
Answer: 0.231

Question: And the relative viability (HCC-366; first compound 0.1581 µM)?
Answer: 0.0925

Question: What about the relative viability (HCC-366; first compound 0.5 µM) of the same compound?
Answer: 0.0894

Question: What about the relative viability (LOU-NH91; first compound 0.005 µM) of the same compound?
Answer: 0.751

Question: And the relative viability (LOU-NH91; first compound 0.01581 µM)?
Answer: 0.742

Question: And the relative viability (LOU-NH91; first compound 0.05 µM)?
Answer: 0.696

Question: What about the relative viability (LOU-NH91; first compound 0.1581 µM) of the same compound?
Answer: 0.545

Question: What about the relative viability (LOU-NH91; first compound 0.5 µM) of the same compound?
Answer: 0.491

Question: What about the relative viability (H3255; first compound 0.005 µM) of the same compound?
Answer: 0.732

Question: And the relative viability (H3255; first compound 0.01581 µM)?
Answer: 0.555

Question: What about the relative viability (H3255; first compound 0.05 µM) of the same compound?
Answer: 0.637

Question: What about the relative viability (H3255; first compound 0.1581 µM) of the same compound?
Answer: 0.588

Question: What about the relative viability (H3255; first compound 0.5 µM) of the same compound?
Answer: 0.375

Question: And the relative viability (NCI-H596; first compound 0.005 µM)?
Answer: 0.858

Question: What about the relative viability (NCI-H596; first compound 0.01581 µM) of the same compound?
Answer: 0.916

Question: What about the relative viability (NCI-H596; first compound 0.05 µM) of the same compound?
Answer: 0.658

Question: What about the relative viability (NCI-H596; first compound 0.1581 µM) of the same compound?
Answer: 0.581

Question: And the relative viability (NCI-H596; first compound 0.5 µM)?
Answer: 0.767
